Assay results from a melting point compilation (Tetko et al.; mined from patent text by program, amines drawn as free bases though some values may be those of a salt).

Row | Structure (SMILES) | melting point [°C]
1 | OC(Cn1cncn1)(CC(Cl)(Cl)Cl)c1cc(Cl)cc(Cl)c1 (stereo unspecified) | 186
2 | COc1cc2c3c(c1OC)CCc1ccccc1C3CNC2 (stereo unspecified) | > 250
3 | CC(C)NC(=O)Nc1ccc(Oc2ccc3sncc3c2)c(C(F)(F)F)c1 | 158
4 | CC1(C)CC(SCc2c(Cl)nn(C(F)F)c2C(F)(F)F)=NO1 | 89 to 90
5 | O=CC=C(c1ccc(F)cc1)c1ccc(F)cc1 | 56 to 58
6 | NC(=O)CC1(c2ccccc2)C(=O)Nc2ccc(Cl)cc21 (stereo unspecified) | 247 to 248
7 | CCc1cn(C2CC(OC)C(CO)O2)c(=O)[nH]c1=O (stereo unspecified) | 118 to 127
8 | Nc1ncnc2c1c(-c1cc(O)cc(F)c1)nn2Cc1oc2cccc(F)c2c(=O)c1-c1cccc(F)c1 | 136 to 138
9 | NC(=O)N(O)CCn1ccc2ccccc21 | 57 to 60
10 | CCCc1nc2c(N)nc3cc(Oc4cccc([N+](=O)[O-])c4)ccc3c2n1CC(C)C | 198 to 200
11 | O=C1Cc2cc(Cl)cc(C(=O)c3ccc(F)cc3)c2N1 | 222 to 225
12 | Cc1ccc(C(c2ccc(C)cc2)(c2ccc(C)cc2)c2ccc(C#N)cc2)cc1 | 207 to 209
13 | CN1C(=O)[C@H](NC(=O)/C=C/c2ccc3c(c2)OCO3)N=C(c2ccccc2)c2ccccc21 | 143 to 145
14 | Nc1nc(-n2cc(C(=O)O)c(=O)c3cc(F)c(NCCCO)c(Cl)c32)c(F)cc1F | 136 to 142
15 | CC(C)(C)OC(=O)N[C@H]1COC1=O | 120 to 122
16 | N#Cc1ccc2c(c1)COC2(c1ccc(F)cc1)c1ccc(F)cc1 | 105 to 106
17 | N#Cc1ccc(-c2sc(N)c(C(=O)c3ccc(Cl)cc3)c2CN(C2CCCCC2)C2CCCCC2)cc1 | 196 to 200
18 | CC(C)CCNC(=O)C(c1ccccc1)c1ccccc1 | 128
19 | CCCCC(CC)Cn1c(C)cc(C)c(C(=O)O)c1=O (stereo unspecified) | 89 to 91
20 | CSc1nc(Cl)c2ccsc2n1 | 105 to 107
21 | N#Cc1ccc(N(N)Cc2ccc(Br)cc2)cc1 | 90
22 | Cc1oc(-c2ccc3ccccc3c2)nc1COc1ccc(COc2ncccc2CO)cc1 | 161 to 162
23 | O=C1CC(c2ccccc2)N(C(=O)Cl)N1 (stereo unspecified) | 146
24 | CCCOCCSc1ccc(-c2ccc3c(c2)C=C(C(=O)Nc2ccc(CN(C)C4CCOCC4)cc2)CCS3(=O)=O)cc1 | 198 to 200
25 | O=C1NC(CO)Cc2c[nH]c3cccc1c23 (stereo unspecified) | 186 to 187
26 | COc1ccccc1N1CCN(C(=O)Nc2cc(C(C)=O)c(C)nc2OC)CC1 | 153 to 154

Row | Structure (SMILES) | melting point [°C]
27 | CN(C)c1ccc(-c2cc3ccccc3o2)cc1 | 178 to 181
28 | NC1=NC(c2ccc(OC(F)F)cc2)(c2cccc(-c3cccnc3F)c2)C2=NCC3(CC3)CN12 (stereo unspecified) | 98 to 108
29 | CS(=O)(=O)c1ccccc1C(N)=O | 149
30 | COc1ccc(-n2c(-c3ccc(S(N)(=O)=O)cc3)cc(C)c2Cl)cc1 | 155 to 156
31 | CC(Oc1ccc2c(c1)c(-c1cc3cccnc3[nH]1)cn2C)C(=O)O (stereo unspecified) | 177 to 178
32 | CC(C)(C)OC(=O)N1CCC(c2n[nH]c(-c3ccccn3)n2)CC1 | 220
33 | O=C(c1cccs1)c1cnn2c(-c3cccc(F)c3)ccnc12 | 235 to 237
34 | Cc1c(-c2ccc3c(c2)C2(CCCCC2)C(=O)N3)sc2ccc(Cl)cc12 | 256 to 258
35 | Nc1ccccc1-c1ccc(CCCC(=O)O)cc1 | 123 to 126
36 | O=C(Nc1cccc(Br)c1)Nc1cc(NC(=O)Nc2cccc(Br)c2)cc(C(=O)O)c1 | > 300
37 | CC(=O)Nc1ccc(C=O)cc1F | 133
38 | O=C(Cc1ccccc1O)N1CCOCC1 | 122
39 | COC(=O)[C@@H]1C[C@H](OC(=O)c2ccsc2)C(=O)[C@H]2[C@@]1(C)CC[C@H]1C(=O)O[C@H](c3ccoc3)C[C@]21C | 211 to 212
40 | O=C1OC(O)(C(F)(F)F)c2cccc(O)c21 (stereo unspecified) | 128 to 129
41 | COC(=O)c1ccc(Cl)c(-n2nnn(C)c2=O)c1Cl | 135 to 137
42 | CN(C)C1CSC(C#N)(c2ccc(Cl)cc2)SC1 (stereo unspecified) | 110 to 111
43 | CCN(C(C)=O)c1ccc(OC23CCC(CC2)CC3)cc1 | 99 to 101
44 | COC(=O)c1cc2cc(C(=O)c3cccs3)c(Cl)c(Cl)c2o1 | 184 to 187
45 | O=C1NC(=O)C(Cc2ccc([N+](=O)[O-])cc2)N1 (stereo unspecified) | > 235
46 | COC(=O)C(NC(=S)n1nc(Oc2ncc(C(F)(F)F)cc2Cl)cc1C)C(C)C (stereo unspecified) | 109 to 110
47 | CC(C)(CNc1nc(Cl)ncc1Cl)NS(C)(=O)=O | 143 to 145
48 | O=C1c2ccccc2C(=O)N1CCCC(c1ccc(F)cc1)c1ccc(F)cc1 | 69 to 70
49 | NC(=O)c1cccc2c1nc(-c1c(F)cccc1F)n2Cc1c(F)cccc1F | 260 to 261
50 | CC(=O)Oc1c(C(C)(C)C)cc2occc2c1C(C)(C)C | 87.7
51 | Cc1cc([N+](=O)[O-])cnc1CCC#N | 73 to 74
52 | Cc1cnc2c(C#N)cnn2c1 | 193 to 194

Row | Structure (SMILES) | melting point [°C]
53 | CCCCCCCCCCCCNC(=O)C1CCC(=O)N1 (stereo unspecified) | 114 to 116
54 | COc1cc(CNC(=O)c2cc3c(=O)n(Cc4ccc([N+](=O)[O-])nc4)c(=O)n(C)c3s2)ccn1 | 200 to 207
55 | CCCCCCC(=O)c1ccc2cc(OC)c(OC)cc2c1 | 77 to 78
56 | [N-]=[N+]=Nc1ccc(C(=O)OCCOC(=O)CC[C@@H](C(=O)O)n2c3ccccc3c3ccccc32)cc1 | 70
57 | CC(C)(C)c1cc(N(C(=O)CCC(=O)O)c2cccc(C(=O)O)c2)cc(C(C)(C)C)c1O | 182 to 183
58 | C#CCNC(NCCSCc1[nH]cnc1C)=C(C#N)C(N)=O | 88 to 94
59 | CC(=Cc1ccc(OCCCNc2ccc(Cl)cc2)cc1)C(=O)O | 188 to 193
60 | CC(F)(C(N)=O)c1ccc(OS(=O)(=O)C(F)(F)F)cc1 (stereo unspecified) | 75 to 78
61 | OCc1cnc(-c2ccc(OC(F)(F)F)cc2)nc1 | 84 to 85
62 | N#CC(c1ccccc1)(c1ccccc1)[C@H]1CCCN(CCc2ccc(Cl)cc2)C1 | 129 to 131
63 | CCCCCCCCCC(=O)OC1=C(c2nnc(CCCCCCCCC)o2)N(C)S(=O)(=O)c2ccccc21 | 68 to 69
64 | Nc1c(Br)cc(O)c2c1C(=O)c1ccccc1C2=O | 226 to 228
65 | O=C(O)Cc1cccc(C(=O)c2ccc(O)cc2)c1 | 147 to 149
66 | CC(C)c1cc2c(cc1Oc1ccc(C(=O)O)cc1)C(C)(C)CCC2(C)C | 205 to 206
67 | CN1CCC(Oc2noc3ccc(Cl)cc23)CC1 | 55 to 56
68 | O=c1nc(-c2ccccc2F)c2cc(Cl)ccc2[nH]1 | > 300
69 | O=c1[nH]cccc1Cc1cccc(F)c1 | 110
70 | CCOC(=O)N1C=CC(c2c(-c3ccc(OC)cc3)nc3n2CCC3)C=C1 | 116 to 118
71 | COc1ccc(-c2nc(CNC(=O)OCc3ccccc3)sc2-c2cccnc2)cc1 | 93 to 94
72 | O=C1NC(=O)c2c1c(-c1ccccc1Cl)cc1c2c(Br)cn1CCCN1CCOCC1 | 117 to 120
73 | CCC(C)(C)Nc1c(NCc2ccccn2)c(=O)c1=O | 192
74 | COc1cccc(C(=O)Nc2ccc(OCCN3CCOCC3)c3ccccc23)c1 | 105 to 107
75 | O=C1Nc2cc(Cl)c(Cl)cc2C1(Br)c1ccccc1Cl (stereo unspecified) | 215 to 218
76 | O=C(Cc1ccc(Cl)cc1Cl)c1cccnc1 | 78 to 79
77 | O=Cc1cn(Cc2ccc(OCc3coc(-c4ccccc4)n3)cc2)nc1-c1cccs1 | 153 to 154
78 | N#Cc1ccc2c(c1)N=Cc1ccccc1O2 | 158 to 159

Row | Structure (SMILES) | melting point [°C]
79 | Cc1oc(-c2ccc(C(F)(F)F)cc2)cc1CC(=O)O | 123 to 125
80 | O=c1c2ccccc2c(-c2ccccc2)cn1CC1CO1 (stereo unspecified) | 148
81 | CCOC(=O)/C(C)=C/c1ccc(OC(C)C)cc1Oc1ncc(C(F)(F)F)cc1Cl | 61 to 62
82 | O=S(=O)(c1ccc(Br)cc1)N1CCC2(C=Cc3ccccc32)CC1 | 177 to 178
83 | C[C@H](NC(=O)COCCNC(=O)C12CC3CC(CC(C3)C1)C2)C(=O)N[C@H](CCC(=O)OCc1ccccc1)C(N)=O | 57 to 64
84 | Cc1cc(C(=O)OC(C)(C)C)cc(C(=O)OC(C)(C)C)c1 | 86.5 to 87.5
85 | COC(C(=O)O)c1ccsc1 (stereo unspecified) | 80 to 82
86 | Nc1ncc(C#Cc2ccc(Cl)cc2)c(OCCOCCO)n1 | 142 to 143
87 | CSc1sc(-c2ccn(C)n2)c2c1-c1oncc1C(C)(C)C2 | 128 to 130
88 | COC(=O)C(c1ccccc1)N1CCN(c2ccc(NC(=O)c3ccccc3-c3ccccc3)cc2)CC1 (stereo unspecified) | 125
89 | CCOc1ccc(Nc2nc3nc[nH]c3c(=O)[nH]2)cn1 | > 350
90 | O=c1nc(-c2ccccc2C(F)(F)F)sc2ccccc12 | 140
91 | CC(C(=O)O)c1ccc(-n2cccn2)cc1 (stereo unspecified) | 137 to 138
92 | Cn1c(COc2ccc(CC3SC(=O)NC3=O)cc2)nc2ccc(Oc3ccc(CCNC(=O)Nc4ccc(F)cc4F)cc3)cc21 (stereo unspecified) | 161 to 164
93 | O=C1CCc2cccc(Oc3ccccc3Cl)c2O1 | 123 to 125
94 | O=C(O)c1ccc(COCc2csc3nc(C(=O)O)[nH]c(=O)c23)cc1 | 248
95 | CCCc1nc(N(C)c2ccccc2)n2ncc(C(=O)c3ccccc3Cl)c2n1 | 149 to 151
96 | CCOC(=O)C1=C(COCc2nnn(CCNC(=NC#N)SC)n2)NC(C)=C(C(=O)OC)C1c1cccc(Cl)c1Cl (stereo unspecified) | 78 to 80
97 | COc1ccc(N2CCOCC2)c2sc(-c3nc4c([nH]3)COCC4)nc12 | 203 to 204
98 | CC(C)c1cccc(C(C)C)c1N1C(=O)c2cccc3c(Oc4ccc(C(C)(C)CC(C)(C)C)cc4)ccc(c23)C1=O | 217
99 | CC(C)(C)c1nc2cc(N3CCCC3)c([N+](=O)[O-])cc2s1 | 115 to 117
100 | O=C1C=CC(O)(c2cc3ccccc3o2)C=C1 | 106 to 108
101 | CCCc1c(OC)c(OC)cc2c1C(=O)N(CSc1nnnn1-c1ccccc1)S2(=O)=O | 145 to 146
